Consider 18 compounds from ChEMBL document CHEMBL1777676, “3-substitued indoles: one-pot synthesis and evaluation of anticancer and Src kinase inhibitory activities” (Bioorg Med Chem Lett, 2011).

The target of experiment [1] is Proto-oncogene tyrosine-protein kinase Src (Homo sapiens, UniProt P12931). Put plainly: Inhibition of c-Src using AEEEIYGEFEAKKKK substrate by fluorescence intensity assay.
In a further experiment the test system is SK-OV-3. Put plainly: Anticancer activity against human SKOV3 cells assessed as inhibition of cell proliferation at 50 uM after 72 hrs relative to control. Type of experiment: functional. The settings on record: SK-OV-3, 72 h.
The next experiment concerns HT-29. Put plainly: Anticancer activity against human HT-29 cells assessed as inhibition of cell proliferation at 50 uM after 72 hrs relative to control. The format is functional. The settings on record: HT-29, 72 h.

Some results are limits rather than exact numbers.

Proto-oncogene tyrosine-protein kinase Src, sequence (P12931 2-536 limits assumed): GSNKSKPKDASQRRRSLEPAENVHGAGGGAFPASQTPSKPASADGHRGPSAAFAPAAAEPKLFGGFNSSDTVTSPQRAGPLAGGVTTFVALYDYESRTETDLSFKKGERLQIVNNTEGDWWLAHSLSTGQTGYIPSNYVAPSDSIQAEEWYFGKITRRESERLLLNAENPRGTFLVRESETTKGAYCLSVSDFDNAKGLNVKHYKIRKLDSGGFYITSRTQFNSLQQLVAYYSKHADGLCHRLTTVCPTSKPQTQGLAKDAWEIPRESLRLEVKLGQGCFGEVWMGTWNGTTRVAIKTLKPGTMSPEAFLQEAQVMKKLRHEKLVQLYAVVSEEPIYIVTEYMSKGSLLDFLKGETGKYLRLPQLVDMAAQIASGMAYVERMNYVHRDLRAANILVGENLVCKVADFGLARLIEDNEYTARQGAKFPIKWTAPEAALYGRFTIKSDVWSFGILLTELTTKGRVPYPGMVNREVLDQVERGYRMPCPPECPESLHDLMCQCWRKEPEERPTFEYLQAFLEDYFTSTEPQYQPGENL

The term IC50 denotes the concentration at which inhibition is half-maximal. A low value points to inhibition by little substance. `COc1ccc(C(c2c[nH]c3ccccc23)N(C)c2ccccc2)cc1` (configuration not stated) gave an IC50 in experiment [1] greater than 150 µM. The same measure, in the same setting: the same measure for `COc1ccc(C(c2c[nH]c3ccc(OC)cc23)N(C)c2ccccc2)cc1` (configuration not stated): 100 µM; for `CN(c1ccccc1)C(c1ccc(Cl)cc1)c1cn(C)c2ccccc12` (configuration not stated): 98.3 µM. On the same count and under the same terms, for `COc1cccc(C(c2c[nH]c3ccccc23)N(C)c2ccccc2)c1` (configuration not stated) the value was greater than 150 µM. Usually inhibition stands for how much of the control response was suppressed. As to `CN(c1ccccc1)C(c1ccc(Cl)cc1)c1c[nH]c2ccccc12` (configuration not stated), in the experiment on SK-OV-3, the inhibition at 50 µM was 72%. The IC50 in experiment [1] was greater than 150 µM. The matching figures for `CN(c1ccccc1)C(c1ccccc1)c1c[nH]c2ccccc12` (configuration not stated): 55% and 50.6 µM. As for `Cc1ccc(C(c2c[nH]c3ccccc23)N(C)c2ccccc2)cc1` (configuration not stated), the IC50 in experiment [1] is greater than 150 µM. The same measure, in the same setting: for `Cc1ccc(C(c2cn(C)c3ccccc23)N(C)c2ccccc2)cc1` (configuration not stated) the value was 60.5 µM; for `CN(c1ccccc1)C(c1cccc([N+](=O)[O-])c1)c1c[nH]c2ccccc12` (configuration not stated), 58.3 µM. As to `COc1ccc2[nH]cc(C(c3ccc(C)cc3)N(C)c3ccccc3)c2c1` (configuration not stated), the inhibition at 50 µM with SK-OV-3 and with HT-29 was 70% throughout. Also, the IC50 in experiment [1] was greater than 150 µM. Turning to `COc1ccc2[nH]cc(C(c3ccc(Cl)cc3)N(C)c3ccccc3)c2c1` (configuration not stated), the inhibition at 50 µM in the experiment with SK-OV-3 amounted to 77%. The same compound showed an IC50 in experiment [1] of 87 µM. Consider `CN(c1ccccc1)C(c1ccccc1)c1c[nH]c2ccc(Br)cc12` (configuration not stated), for which the IC50 in experiment [1] stood at 71.6 µM. Same read-out and setting: the same measure for `CN(c1ccccc1)C(c1ccc(O)c(Br)c1)c1c[nH]c2ccccc12` (configuration not stated): greater than 150 µM. On the same count and under the same terms, the same measure for `CN(c1ccccc1)C(c1ccccc1)c1cn(C)c2ccccc12` (configuration not stated): greater than 150 µM.

`COc1ccc(C(c2c[nH]c3ccccc23)N(C)c2ccccc2)c(OC)c1` (configuration not stated) came in with an IC50 in experiment [1] greater than 150 µM.

As for `Cc1ccc(C(c2c[nH]c3ccc(Br)cc23)N(C)c2ccccc2)cc1` (configuration not stated), the inhibition at 50 µM in the experiment with SK-OV-3 and in the experiment on HT-29 was 70% throughout. Moreover, in experiment [1], the IC50 is greater than 150 µM. In turn, `CN(c1ccccc1)C(c1ccc(O)cc1)c1c[nH]c2ccccc12` (configuration not stated) showed an IC50 in experiment [1] greater than 150 µM. Consider `COc1ccc(C(c2c[nH]c3ccc(Br)cc23)N(C)c2ccccc2)cc1` (configuration not stated), for which the inhibition at 50 µM with SK-OV-3 and in the experiment with HT-29 was 70% throughout. This compound also displayed a half-inhibitory concentration (IC50) in experiment [1] of 106 µM.
